Here are results for 40 compounds from ChEMBL document CHEMBL6092199, “Naphthalen-1-ylethanamine-containing small molecule inhibitors of the papain-like protease of SARS-CoV-2” (Eur J Med Chem, 2024).

Activity calls are given as the source filed them. No cut-off for these calls is given here.

One may read the IC50 as the concentration at which inhibition is half-maximal. As usually defined, the CC50 is the concentration at which the toxic effect on the cells reaches its halfway point. In general, Ki refers to a measure of affinity in units of concentration, obtained from inhibition or displacement. One may read the EC50 as the midpoint of the concentration-response curve.

Data set [1] concerns the target T1, Replicase polyprotein 1ab (Severe acute respiratory syndrome coronavirus 2, UniProt P0DTD1). The data set can be described thus: Inhibition of SARS-CoV-2 PL protease using (Z)-Arg-Leu-Arg-Gly-Gly-4-methyl-coumaryl-7-amide as substrate measured every 150 sec for 1 hr by multimode reader assay.
Data set [2] is described as follows: Cytotoxicity against african green monkey Vero E6 cells incubated for 3 days by CCK8 assay. It counts as toxicity, cell-based, Vero C1008. The note with it: chlorocebus sabaeus, time 3 day. A general note: Formazan colour is commonly taken as a measure of viable cells.
For data set [3], the target named is T1, Replicase polyprotein 1ab. The data set can be described thus: Inhibition of SARS-CoV-2 PL protease using varying concentration of (Z)-Arg-Leu-Arg-Gly-Gly-4-methyl-coumaryl-7-amide as substrate by Dixon plot analysis.
Data set [4] is described as follows: Inhibition of SARS-CoV-1 PL protease using varying concentration of (Z)-Arg-Leu-Arg-Gly-Gly-4-methyl-coumaryl-7-amide as substrate by Dixon plot analysis. The arrangement: species or system Severe acute respiratory syndrome-related coronavirus.
A short description of data set [5]: Inhibition of SARS-CoV-1 PL protease using (Z)-Arg-Leu-Arg-Gly-Gly-4-methyl-coumaryl-7-amide as substrate and varying concentration of […] by Lineweaver-burk plot analysis. The arrangement: species or system Severe acute respiratory syndrome-related coronavirus.
Data set [6] has as its target T1, Replicase polyprotein 1ab. The data set can be described thus: Inhibition of SARS-CoV-2 PL protease using (Z)-Arg-Leu-Arg-Gly-Gly-4-methyl-coumaryl-7-amide as substrate and varying concentration of […] by Lineweaver-burk plot analysis.
The test system of data set [7] is SARS-CoV-2. The data set can be described thus: Antiviral activity against SARS-CoV-2 JPN/TY/WK-521 infected in Vero E6 cells assessed as reduction in viral RNA level incubated for 3 days by RT-qPCR analysis. The format is functional, organism-based. Conditions: Severe acute respiratory syndrome coronavirus 2, JPN/TY/WK-521, Vero C1008, 72 h. (In general: Real-time PCR tracks product formation cycle by cycle.)

Data set [8] in a line: Inhibition of SARS-CoV-1 PL protease using (Z)-Arg-Leu-Arg-Gly-Gly-4-methyl-coumaryl-7-amide as substrate measured every 150 sec for 1 hr by multimode reader assay. The arrangement: species or system Severe acute respiratory syndrome-related coronavirus.
The subject of data set [9] is SARS-CoV-2. The data set can be described thus: Antiviral activity against SARS-CoV-2 JPN/TY/WK-521 infected in Vero E6 cells assessed as reduction in cytopathic effect at 1 to 100 uM pretreated with virus for 1 hr followed by viral washout and compound exposure for 3 days by immunocytochemistry analysis. It counts as functional, organism-based. Conditions: Severe acute respiratory syndrome coronavirus 2, dose 1-100 µM, time 3.0 day. Background: Protection from cytopathic effect is a common read-out in antiviral testing.

For the compound `Cc1ccc(CNC(=O)c2ccc(C(C)(C)C)cc2)cc1C(=O)N[C@H](C)c1cccc2ccccc12`, the IC50 in [1] was found to be 3.1 µM; in data set [8], 0.47 µM. In data set [2], the CC50 at 72 h stood at 58.2 µM. Also, the Ki in data set [3] was 4.6 µM; in data set [4], 0.54 µM; in data set [5] it was 0.32 µM; in [6], 4.1 µM. Besides, in the data set on SARS-CoV-2 [7], the EC50 amounted to 7.3 µM.
On to `Cc1ccc(CNC(=O)c2cc(C(F)(F)F)cc(C(F)(F)F)c2)cc1C(=O)N[C@H](C)c1cccc2ccccc12`, for which the CC50 at 72 h in data set [2] was > 100 µM. Moreover, in the data set with SARS-CoV-2 [7], the concentration for a half-maximal effect (EC50) was found to be 72.8 µM.
For the compound `CCOC(=O)C(=O)NCc1ccc(C)c(C(=O)N[C@H](C)c2cccc3ccccc23)c1`, the CC50 at 72 h in data set [2] was > 100 µM. The EC50 in the data set on SARS-CoV-2 [7] was > 100 µM.
As for `Cc1ccc(CNC(=O)c2ccc(F)cc2F)cc1C(=O)N[C@H](C)c1cccc2ccccc12`, in data set [2], the CC50 at 72 h was > 100 µM. Also, the EC50 in the data set with SARS-CoV-2 [7] was > 100 µM.
As for `Cc1ccc(CNC(=O)c2c(F)cc(F)cc2F)cc1C(=O)N[C@H](C)c1cccc2ccccc12`, the CC50 at 72 h in data set [2] was > 100 µM. The EC50 in the data set on SARS-CoV-2 [7] was > 100 µM.
Regarding `Cc1ccc(CNC(=O)c2c(F)c(F)cc(F)c2F)cc1C(=O)N[C@H](C)c1cccc2ccccc12`, in data set [2], the CC50 at 72 h was > 100 µM. Further, the 50% effective concentration (EC50) in the data set on SARS-CoV-2 [7] was 44.8 µM.
Consider `CC(=O)NCc1ccc(C)c(C(=O)N[C@H](C)c2cccc3ccccc23)c1`, for which the CC50 at 72 h in data set [2] is > 100 µM. For the same compound, the EC50 in the data set on SARS-CoV-2 [7] is > 100 µM.
As for `Cc1ccc(CNC(=O)c2cccc(F)c2F)cc1C(=O)N[C@H](C)c1cccc2ccccc12`, in data set [2], the CC50 at 72 h is > 100 µM. Also, the EC50 in the data set on SARS-CoV-2 [7] worked out at 52.3 µM.
As to `Cc1ccc(CNC(=O)c2ccc(F)cc2)cc1C(=O)N[C@H](C)c1cccc2ccccc12`, the CC50 at 72 h in data set [2] was > 100 µM. In the data set with SARS-CoV-2 [7], the EC50 was 25.7 µM.
`Cc1ccc(CNC(=O)c2ccc(C(F)(F)F)cc2F)cc1C(=O)N[C@H](C)c1cccc2ccccc12`: the CC50 at 72 h in data set [2] was > 100 µM. Further, the EC50 in the data set with SARS-CoV-2 [7] is > 100 µM.
For `Cc1ccc(CNC(=O)c2ccc([N+](=O)[O-])c(F)c2)cc1C(=O)N[C@H](C)c1cccc2ccccc12`, the CC50 at 72 h in [2] was > 100 µM. Besides, in the data set on SARS-CoV-2 [7], the EC50 was determined as 76.9 µM.
Regarding `Cc1ccc(CNC(=O)CC(F)(F)F)cc1C(=O)N[C@H](C)c1cccc2ccccc12`, in data set [2], the CC50 at 72 h was > 100 µM. The EC50 in the data set with SARS-CoV-2 [7] was 40.7 µM.
Turning to `Cc1ccc(CNC(=O)c2ccccc2)cc1C(=O)N[C@H](C)c1cccc2ccccc12`, the CC50 at 72 h in [2] was > 100 µM. Also, the EC50 in the data set with SARS-CoV-2 [7] was determined as 35.4 µM.
Regarding `Cc1ccc(CNC(=O)c2ccc([N+](=O)[O-])cc2)cc1C(=O)N[C@H](C)c1cccc2ccccc12`, the half-maximal cytotoxic concentration (CC50) at 72 h in data set [2] is > 100 µM. Besides, the EC50 with SARS-CoV-2 [7] is 40.3 µM.
Regarding `Cc1ccc(CNC(=O)c2ccc(F)c(F)c2)cc1C(=O)N[C@H](C)c1cccc2ccccc12`, in [2], the CC50 at 72 h was > 100 µM. The Ki in [3] is 5.3 µM; in data set [4], 0.28 µM; in data set [5], 0.16 µM; in data set [6], 5.6 µM. Further, the outcome in the data set with SARS-CoV-2 [9] was Active. Moreover, the EC50 in the data set with SARS-CoV-2 [7] was determined as 3.8 µM. The compound also came in with an IC50 in data set [8] of 0.3 µM.
Take `Cc1ccc(CNC(=O)OC(C)(C)C)cc1C(=O)N[C@H](C)c1cccc2cc3ccccc3cc12`: in [2], the CC50 at 72 h was > 100 µM. The EC50 in the data set on SARS-CoV-2 [7] is > 100 µM.
Regarding `Cc1ccc(CNC(=O)c2ccc(F)c(F)c2)cc1C(=O)N[C@H](C)c1cccc2cc3ccccc3cc12`, the CC50 at 72 h in [2] is > 100 µM. Moreover, the EC50 in the data set with SARS-CoV-2 [7] is > 100 µM.
`Cc1ccc(CNC(=O)C(=O)O)cc1C(=O)N[C@H](C)c1cccc2ccccc12`: the IC50 in [1] is 5.9 µM; in [8], 0.46 µM. Moreover, in [2], the CC50 at 72 h is > 100 µM. Besides, the Ki is 4.6 µM in data set [3], 0.18 µM in [4], 0.12 µM in data set [5] and 4.4 µM in data set [6]. For the same compound, the result in the data set with SARS-CoV-2 [9] was Active. The EC50 in the data set with SARS-CoV-2 [7] worked out at 2.7 µM.
Compound `Cc1ccc(CNC(=O)c2ccccc2[N+](=O)[O-])cc1C(=O)N[C@H](C)c1cccc2ccccc12` came in with a CC50 at 72 h in data set [2] of 55.6 µM. The EC50 with SARS-CoV-2 [7] worked out at 18.3 µM.
As for `Cc1ccc(CNC(=O)c2ccc(C(F)(F)F)cc2)cc1C(=O)N[C@H](C)c1cccc2ccccc12`, the CC50 at 72 h in [2] is > 100 µM. Moreover, in the data set on SARS-CoV-2 [7], the EC50 stood at 18.7 µM.
The matching figures for `Cc1ccc(CNC(=O)c2cccc(F)c2)cc1C(=O)N[C@H](C)c1cccc2ccccc12`: > 100 µM and 57.4 µM.
For the compound `Cc1ccc(CNC(=O)C(F)(F)F)cc1C(=O)N[C@H](C)c1cccc2ccccc12`, the CC50 at 72 h in [2] is > 100 µM. For the same compound, the EC50 in the data set on SARS-CoV-2 [7] is 30.3 µM.
The matching figures for `Cc1ccc(CNC(=O)c2cc(F)c(F)cc2F)cc1C(=O)N[C@H](C)c1cccc2ccccc12`: > 100 µM and > 100 µM.
On the same counts, the results for `Cc1ccc(CN)cc1C(=O)N[C@H](C)c1cccc2ccccc12` are > 100 µM and 15.5 µM.
Turning to `Cc1ccc(CNC(=O)c2ccc(C(F)(F)F)c(F)c2)cc1C(=O)N[C@H](C)c1cccc2ccccc12`, the CC50 at 72 h in data set [2] was > 100 µM. Also, the concentration for a half-maximal effect (EC50) in the data set with SARS-CoV-2 [7] was > 100 µM.
`Cc1ccccc1C(=O)NCc1ccc(C)c(C(=O)N[C@H](C)c2cccc3ccccc23)c1`: the CC50 at 72 h in data set [2] was > 100 µM. In the data set with SARS-CoV-2 [7], the EC50 amounted to 15.1 µM.
On the same counts, the results for `Cc1ccc(CNC(=O)c2ccccc2F)cc1C(=O)N[C@H](C)c1cccc2ccccc12` are > 100 µM and 13.2 µM.
The matching figures for `CNCc1ccc(C)c(C(=O)N[C@H](C)c2cccc3ccccc23)c1`: > 100 µM and 25.2 µM.
On the same counts, the results for `Cc1ccc(CNC(=O)C(=O)O)cc1C(=O)N[C@H](C)c1cccc2cc3ccccc3cc12` are > 100 µM and > 100 µM.
The compound `Cc1ccc(CN)cc1C(=O)N[C@H](C)c1cccc2cc3ccccc3cc12` showed a CC50 at 72 h in data set [2] of 40.5 µM. Further, the EC50 in the data set with SARS-CoV-2 [7] is 27.3 µM.
Consider `Cc1ccc(CNC(=O)C(C(F)(F)F)C(F)(F)F)cc1C(=O)N[C@H](C)c1cccc2ccccc12`, for which, in [2], the CC50 at 72 h was > 100 µM. Besides, the EC50 with SARS-CoV-2 [7] is > 100 µM.
`Cc1ccc(CNC(=O)c2cccc(C(F)(F)F)c2F)cc1C(=O)N[C@H](C)c1cccc2ccccc12`: the CC50 at 72 h in [2] is > 100 µM. Also, in the data set with SARS-CoV-2 [7], the EC50 came to 29.1 µM.
With `Cc1ccc(CNC(=O)c2ccc(F)cc2C(F)(F)F)cc1C(=O)N[C@H](C)c1cccc2ccccc12`, the CC50 at 72 h in data set [2] was > 100 µM. For the same compound, in the data set with SARS-CoV-2 [7], the EC50 was > 100 µM.
Consider `Cc1ccc(C(=O)NCc2ccc(C)c(C(=O)N[C@H](C)c3cccc4ccccc34)c2)cc1`, for which the CC50 at 72 h in [2] is > 100 µM. Further, the EC50 in the data set with SARS-CoV-2 [7] was > 100 µM.
Take `Cc1ccc(CNC(=O)c2ccccc2C(F)(F)F)cc1C(=O)N[C@H](C)c1cccc2ccccc12`: the CC50 at 72 h in [2] was > 100 µM. In the data set on SARS-CoV-2 [7], the EC50 is 27.4 µM.
Take `Cc1ccc(N)cc1C(=O)N[C@H](C)c1cccc2ccccc12`: the CC50 at 72 h in data set [2] is > 100 µM. Also, the Ki is 0.29 µM in data set [4] and 0.12 µM in data set [5]. The concentration giving a half-maximal response (EC50) in the data set with SARS-CoV-2 [7] stood at 24.7 µM. For the same compound, the 50% inhibitory concentration (IC50) in data set [8] was found to be 0.05 µM.
`Cc1ccc(CNC(=O)c2cccc(C(F)(F)F)c2)cc1C(=O)N[C@H](C)c1cccc2ccccc12`: the CC50 at 72 h in [2] is > 100 µM. Moreover, the EC50 in the data set with SARS-CoV-2 [7] worked out at 15.7 µM.
On the same counts, the results for `Cc1ccc(CNC(=O)C(N)=O)cc1C(=O)N[C@H](C)c1cccc2ccccc12` are > 100 µM and > 100 µM.
Regarding `Cc1cccc(C(=O)NCc2ccc(C)c(C(=O)N[C@H](C)c3cccc4ccccc34)c2)c1`, the CC50 at 72 h in [2] was > 100 µM. The EC50 in the data set with SARS-CoV-2 [7] amounted to 44 µM.
On to `Cc1ccc(CNC(=O)c2cccc(C(F)(F)F)c2C)cc1C(=O)N[C@H](C)c1cccc2ccccc12`, for which, in data set [2], the CC50 at 72 h is > 100 µM. The EC50 with SARS-CoV-2 [7] was > 100 µM.
